In patent US10238676B2, “Application of ginsenoside RG3 in preparing medicine for preventing and/or treating dementia, and medicine for treating dementia” (priority 2013, dated 2019):

Key:
β-amyloid protein (Aβ) = experiment: Cerebrospinal fluid β-amyloid protein content (ELISA) of patients with Alzheimer's disease; type: in vivo, human; conditions: AD inpatients
Experimental: 2 ml of cerebrospinal fluid is collected by lumbar puncture, and is stored at −80° C., the β-amyloid protein (Aβ) content is determined by using enzyme-linked immunosorbent assay (ELISA). A revised Hasegawa dementia scale (HDS-R) is used to score, and the scores before and after treatment are compared, increasing in scores means validness, and unchanging or decreasing in scores means invalidness. The enumeration data adopts χ^2 test, the comparison of measurement data adopts t-test, all data is processed by adopting SPSS12.0 statistical software.

[1] = test system: patients with mild or moderate Alzheimer's disease; experiment: Self-controlled clinical research, MMSE/CDR/ADL, mild or moderate Alzheimer's disease (Test Example 5); type: in vivo, human
Experimental: 99 patients with mild or moderate Alzheimer's disease, among which 47 are male, 52 are female, all aged from 55 to 85 (73.5±7.6), MMSE score is […] (16.3±2.6) points.
Patients with AD all use the ginsenoside Rg3 naristillae once a day, 10 mg/ml each time, and keep using it for 12 weeks.
Examination is conducted once every four weeks before and after medication, and the medication method is as follows:
(§1) (1) MMSE screening of AD: examining patients' cognitive functions (orientation, memory, computational power, language competence, ability in applying visual-spatial etc.; (2) Examining patents' dementia degree using the clinical dementia rating (CDR); (3) examining patents' activities of daily living using the activity of daily living scale (ADL).
SPSS statistical software is adopted for examination results. T-test is adopted before and after treatment, and it is also adopted for the ginsenoside Rg3 naristillae group and the placebo control group.

[2] = test system: patients with mild or moderate Alzheimer's disease; experiment: Placebo-controlled clinical research, MMSE/CDR/ADL, mild or moderate Alzheimer's disease (Test Example 4); type: in vivo, human
Text: 89 patients with mild or moderate Alzheimer's disease are divided into two groups randomly, one of which take ginsenoside Rg3, and the other placebos. There are 46 patients in the group taking Rg3, with 21 male and 25 female, aged from 58 to 87 (72.6±6.8), scoring from 10 to 24 (17.8±2.3) points in the mini-mental state examination (MMSE); there are 43 patients taking placebos, with 19 male and 24 female aged from 57 to 88 (71.8±8.2), scoring from 10 to 24 (18.2±2.7) points in MMSE. There are no obvious differences between the ginsenoside Rg3 group and the placebo group with respect to gender, age and MMSE scores. The patents in the group taking ginsenoside Rg3 use the ginsenoside Rg3 naristillae once a day for 12 continuous weeks, with 10 mg/ml for each time.
For the patients taking placebos, except that what is used for intranasal administration are placebos, the rest is conducted according to the same administration method as that adopted by those taking ginsenoside Rg3.
The ginsenoside Rg3 naristillae has a concentration of 10 mg/ml, and colors, characters, tastes and dosages of the placebos are the same as those of the ginsenoside Rg3 naristillae. The ginsenoside Rg3 naristillae and the placebos are applied once a day for 12 continuous weeks. Examination is conducted once every four weeks before and after medication, and the examination method is as follows:
as §1, with “MMSE Screening” for “MMSE screening”, “visual-spatial segment” for “visual-spatial”, “dementia degrees” for “dementia degree”, “(3) Examining” for “(3) examining”
SPSS statistical software is adopted for examination results. T-test is adopted before and after treatment, and it is also adopted for the ginsenoside Rg3 naristillae group and the placebo control group. For scoring results of MMSE, CDR and ADL of patients with AD before treatment, see table 5

[3] = Content of ginsenoside Rg3 in rat cerebrospinal fluid (BBB test, LC/MS/MS); type: in vivo, SD rats; conditions: rats, orally 10 mg/kg
Experimental: 1) Oral administration: an oral preparation of ginsenoside Rg3 is given to SD rats by lavage, the medicines of all high-dosage, medium-dosage and low-dosage groups are: 20, 10 and 5 mg/kg (the dosage above is pure dosage of Rg3)/bid, respectively, and each dosage group has 18 rats;
Rat cerebrospinal fluid is sucked after orally, topically and injection administering different preparations of ginsenoside Rg3 for 4 hours. […] Each rat is anesthetized with 10% chloral hydrate by intraperitoneal injection, the head of the rat is fixed by brain straight body positioning ear rods and front tooth rods, the occipital region is sheared and sterilized, and a longitudinal incision (about 2 cm) is cut along the posterior midline, and the muscles at the dorsal part of napex are bluntly separated with a pair of scissors. […]
The medicine concentrations in the rat cerebrospinal fluid are determined by LC/MS/MS methods. […]

[4] = 99 AD patients, Rg3 naristillae 10 mg/ml once a day
[5] = Test Example 5, versus before treatment
[6] = 46 AD patients, Rg3 naristillae 10 mg/ml intranasal once a day

CC(C)=CCC[C@](C)(O)[C@H]1CC[C@]2(C)[C@@H]1[C@H](O)C[C@@H]1[C@@]3(C)CC[C@H](O[C@@H]4O[C@H](CO)[C@@H](O)[C@H](O)[C@H]4O[C@@H]4O[C@H](CO)[C@@H](O)[C@H](O)[C@H]4O)C(C)(C)[C@@H]3CC[C@]12C [Ginsenoside Rg3, 20(R)-ginsenoside Rg3]
Aβ content in cerebrospinal fluid, post treatment (β-amyloid protein (Aβ); n = 18, Rg3 oral liquid 10 mg/d or donepezil 5 mg/d orally, 12 weeks): 3.8 ± 1.5 | Aβ content in cerebrospinal fluid, before treatment (β-amyloid protein (Aβ); n = 18 per group, baseline): 5.9 ± 2.6 | ADL score before treatment ([1]; 99 AD patients, baseline): 49.6 ± 8.2 points | CDR score before treatment ([1]; 99 AD patients, baseline): 2.1 ± 0.3 points | MMSE score before treatment ([1]; 99 AD patients, baseline): 16.3 ± 2.6 points | ADL score, treatment for 4 weeks [1, 4]: 48.2 ± 7.9 points | ADL score, treatment for 12 weeks [1, 4]: 42.5 ± 7.3 points | CDR score, treatment for 4 weeks [1, 4]: 1.9 ± 0.2 points | CDR score, treatment for 12 weeks [1, 4]: 1.5 ± 0.2 points | MMSE score, treatment for 4 weeks [1, 4]: 17.1 ± 1.9 points | MMSE score, treatment for 12 weeks [1, 4]: 19.8 ± 1.7 points | decrease of ADL score after treatment [1, 5]: 7.1 points | decrease of CDR score after treatment for 12 weeks [1, 5]: 0.6 points | increase of MMSE score after treatment for 12 weeks [1, 5]: 3.5 points | ADL score before treatment ([2]; 46 AD patients, baseline): 47.2 ± 7.9 points | CDR score before treatment ([2]; 46 AD patients, baseline): 1.9 ± 0.3 points | MMSE score before treatment ([2]; 46 AD patients, baseline): 17.8 ± 2.3 points | ADL score after treatment for 12 weeks [2, 6]: 40.5 ± 7.6 points | CDR score after treatment for 12 weeks [2, 6]: 1.2 ± 0.2 points | MMSE score after treatment for 12 weeks ([2]; 46 AD patients, Rg3 naristillae (embodiment 29) 10 mg/ml intranasal once a day): 24.1 ± 2.0 points | decrease of ADL score after treatment compared with before treatment ([2]; Test Example 4, Rg3 naristillae, 12 weeks): 7.1 points | Ginsenoside Rg3 in cerebrospinal fluid sample (FIG. 2C chromatogram) [3]: 10.8 ng/g
